“And” between values parts separate entries of the source, which are not always exact repeats. Equal entries are not always repeated. Structures can show the parent of a compound that is named as a salt. Values belong to the compound of their own block, whether it stands above or below them.
What was measured:
human 5-HT7b receptors = biological target: T1, human 5-HT7b receptors (Homo sapiens, UniProt P34969); assay: 5-HT7 competition radioligand binding assay ([3H]5-CT); conditions: HEK293 cells overexpressing human 5-HT7b receptors, at least two independent experiments in triplicate; for Ki: read-out: Ki ± S.D. 5-HT7 binding affinity
T1 construct: expressed in transfected cells; host or cells: HEK293
T1 sequence (P34969 1-432): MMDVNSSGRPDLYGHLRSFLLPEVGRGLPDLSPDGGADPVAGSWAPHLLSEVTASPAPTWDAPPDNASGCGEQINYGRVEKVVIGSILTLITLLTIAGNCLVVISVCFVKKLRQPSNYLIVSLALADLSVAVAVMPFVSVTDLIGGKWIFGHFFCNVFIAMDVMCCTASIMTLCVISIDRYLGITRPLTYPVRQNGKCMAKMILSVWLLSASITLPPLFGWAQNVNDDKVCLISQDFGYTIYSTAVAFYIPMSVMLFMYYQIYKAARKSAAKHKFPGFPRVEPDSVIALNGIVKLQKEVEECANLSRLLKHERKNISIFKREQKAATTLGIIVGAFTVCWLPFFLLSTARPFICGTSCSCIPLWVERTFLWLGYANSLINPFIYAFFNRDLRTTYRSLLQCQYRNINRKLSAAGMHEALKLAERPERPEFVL
Experimental: Novel scaffold endowed with 5-HT7R activity was identified by screening of the in-house compound library in a single compound concentration of 1 µM in a competition radioligand binding assay using [^3H]5-CT and HEK293 cells overexpressing the human 5-HT7b receptors.

5-HT7R = biological target: T2, 5-HT7R (Homo sapiens, UniProt P34969); assay: cAMP functional test: inhibition of cAMP production induced by 5-CT (10 nM); format: cell-based; conditions: for Kb: cAMP production induced by 5-CT (10 nM), HEK-293 cells expressing 5-HT7R, read-out: KB (5-HT7R antagonistic properties); for effect on 5-CT-induced cAMP accumulation: transfected HEK cells expressing 5-HT7R, 5-CT (10 nM)
T2 construct: expressed in transfected cells; host or cells: HEK293
T2 sequence (P34969 1-432): as above

dopaminergic D2 = biological target: T3, dopaminergic D2 (Homo sapiens, UniProt P14416); assay: D2 competition binding assay ([3H]-Raclopride); conditions: for Ki: [3H]-Raclopride, HEK293 cells with overexpressed receptor, read-out: Ki ± S.D. D2
T3 construct: expressed in transfected cells; host or cells: HEK293
T3 sequence (P14416 whole entry): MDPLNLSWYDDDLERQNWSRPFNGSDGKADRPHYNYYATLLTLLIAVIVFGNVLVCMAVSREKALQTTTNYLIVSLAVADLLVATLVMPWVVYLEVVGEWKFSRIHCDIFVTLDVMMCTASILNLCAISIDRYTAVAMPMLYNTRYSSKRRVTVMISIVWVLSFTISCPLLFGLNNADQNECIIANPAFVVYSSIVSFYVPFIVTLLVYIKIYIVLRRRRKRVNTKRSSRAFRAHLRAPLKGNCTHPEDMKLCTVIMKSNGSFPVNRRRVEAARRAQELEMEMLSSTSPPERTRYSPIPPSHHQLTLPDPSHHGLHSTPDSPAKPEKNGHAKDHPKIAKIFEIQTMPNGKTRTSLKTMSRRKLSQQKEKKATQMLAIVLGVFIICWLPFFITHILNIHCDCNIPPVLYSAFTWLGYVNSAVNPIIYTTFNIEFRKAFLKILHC

5-HT1A = biological target: T4, 5-HT1A (Homo sapiens, UniProt P08908); assay: 5-HT1A competition binding assay ([3H]-8-OH-DPAT); conditions: HEK293 cells with overexpressed receptor, read-out: Ki ± S.D. 5-HT1A
T4 construct: expressed in transfected cells; host or cells: HEK293
T4 sequence (P08908 1-422): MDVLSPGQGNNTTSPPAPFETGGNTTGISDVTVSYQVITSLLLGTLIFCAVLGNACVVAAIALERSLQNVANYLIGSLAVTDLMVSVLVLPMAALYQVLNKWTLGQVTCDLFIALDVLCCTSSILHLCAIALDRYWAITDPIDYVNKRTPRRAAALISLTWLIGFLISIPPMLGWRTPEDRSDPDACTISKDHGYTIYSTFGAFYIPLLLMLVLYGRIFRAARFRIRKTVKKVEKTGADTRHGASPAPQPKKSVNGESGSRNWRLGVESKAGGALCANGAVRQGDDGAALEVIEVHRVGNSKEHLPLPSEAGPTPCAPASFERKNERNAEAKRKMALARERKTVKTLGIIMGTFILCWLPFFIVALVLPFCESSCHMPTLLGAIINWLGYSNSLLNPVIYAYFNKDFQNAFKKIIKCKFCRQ

5-HT2A = biological target: T5, 5-HT2A (Homo sapiens, UniProt P28223); assay: 5-HT2A competition binding assay ([3H]-Ketanserin); conditions: CHO cells with overexpressed receptor, read-out: Ki ± S.D. 5-HT2A
T5 construct: expressed in transfected cells; host or cells: CHO
T5 sequence (P28223 whole entry, species assumed): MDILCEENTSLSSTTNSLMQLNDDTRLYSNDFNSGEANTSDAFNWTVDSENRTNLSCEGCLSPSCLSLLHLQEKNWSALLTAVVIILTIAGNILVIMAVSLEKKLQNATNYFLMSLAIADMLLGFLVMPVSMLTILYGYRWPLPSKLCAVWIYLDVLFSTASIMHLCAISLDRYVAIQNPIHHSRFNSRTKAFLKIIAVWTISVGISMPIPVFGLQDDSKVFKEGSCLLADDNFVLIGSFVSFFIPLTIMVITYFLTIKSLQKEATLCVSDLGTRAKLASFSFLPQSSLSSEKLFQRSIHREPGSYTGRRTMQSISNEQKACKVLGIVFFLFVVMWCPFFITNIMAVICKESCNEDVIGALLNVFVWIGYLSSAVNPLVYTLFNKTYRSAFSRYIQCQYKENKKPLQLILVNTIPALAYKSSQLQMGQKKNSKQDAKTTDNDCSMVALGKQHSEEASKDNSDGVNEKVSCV

5-HT6 = biological target: T6, 5-HT6 (Homo sapiens, UniProt P50406); assay: 5-HT6 competition binding assay ([3H]-LSD); conditions: for Ki: [3H]-LSD, HEK293 cells with overexpressed receptor, read-out: Ki ± S.D. 5-HT6
T6 construct: expressed in transfected cells; host or cells: HEK293
T6 sequence (P50406 whole entry, species assumed): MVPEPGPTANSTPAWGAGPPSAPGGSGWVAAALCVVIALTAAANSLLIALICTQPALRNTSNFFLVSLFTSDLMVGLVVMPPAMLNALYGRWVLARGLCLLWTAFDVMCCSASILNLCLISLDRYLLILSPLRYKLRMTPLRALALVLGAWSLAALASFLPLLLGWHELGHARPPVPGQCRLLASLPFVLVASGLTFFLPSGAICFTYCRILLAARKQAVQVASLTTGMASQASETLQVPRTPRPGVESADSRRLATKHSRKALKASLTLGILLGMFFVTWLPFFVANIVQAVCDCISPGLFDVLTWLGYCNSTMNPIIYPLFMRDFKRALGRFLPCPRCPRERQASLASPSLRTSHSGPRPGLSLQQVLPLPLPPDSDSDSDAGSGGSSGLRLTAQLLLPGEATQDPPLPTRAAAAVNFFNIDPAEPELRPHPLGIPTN

Ki ± S.D. 5-HT7 binding affinity (human 5-HT7b receptors): no affinity
Ki (human 5-HT7b receptors): > 10 µM
melting point: 58 to 59 °C
SMILES: c1cc(-c2ccoc2)nc(N2CCOCC2)n1 [Compound 44]

melting point: 176 to 177 °C
SMILES: CN1CCCN(c2nccc(-c3ccoc3)n2)CC1 (as salt: hydrobromid) [Compound 42, 4-(3-Furyl)-2-(4-methylhomopiperazin-1-yl)pyrimidine]

melting point: > 300 °C
SMILES: CN1CCN(c2nccc(-c3cc4ccccc4o3)n2)CC1 (as salt: hydrobromid) [Compound 36, 4-(Benzofuran-2-yl)-2-(4-methylpiperazin-1-yl)pyrimidine]

melting point: 190 to 191 °C
SMILES: c1cc(-c2ccoc2)nc(N2CCCCC2)n1 (as salt: hydrobromid) [Compound 43, 4-(3-Furyl)-2-(piperidin-1-yl)pyrimidine]

melting point: 263 to 265 °C
SMILES: Cc1ccc(-c2ccnc(N3CCN(C)CC3)n2)o1 (as salt: hydrobromid) [Compound 29, 4-(5-Methyl-2-furyl)-2-(4-methylpiperazin-1-yl)pyrimidine]

Further lines, the compound ahead of its results:

SMILES: CCCCc1cc(-c2ccoc2)nc(N2CCN(C)CC2)n1 [Compound 13, 4-(n-Butyl)-6-(3-furyl)-2-(4-methylpiperazin-1-yl)pyrimidine]
Ki (human 5-HT7b receptors): 0.0016 ± 0.0002 µM
Kb (5-HT7R): 0.06 µM
effect on 5-CT-induced cAMP accumulation (5-HT7R): dose-dependently decrease
fold more active than 12 at D2 receptors (dopaminergic D2; 13 versus 12): 13 fold
Ki (dopaminergic D2): 0.037 ± 0.004 µM
Ki (5-HT1A): 0.637 ± 0.053 µM
Ki (5-HT2A): 0.012 µM and 0.01 µM
fold more active than 12 at 5-HT6 (5-HT6; 13 versus 12): 10 fold
Ki (5-HT6): 0.012 ± 0.002 µM

SMILES: CCc1cc(-c2ccoc2)nc(N2CCN(C)CC2)n1 [Compound 12, 4-Ethyl-6-(3-furyl)-2-(4-methylpiperazin-1-yl)pyrimidine]
Ki (human 5-HT7b receptors): 0.0071 ± 0.0014 µM
Kb (5-HT7R): 0.012 µM
effect on 5-CT-induced cAMP accumulation (5-HT7R): dose-dependently decrease
Ki (dopaminergic D2): 0.466 ± 0.039 µM
Ki (5-HT1A): 1.5 ± 0.164 µM
Ki (5-HT2A): 0.01 µM and 0.012 µM
Ki (5-HT6): 0.121 ± 0.014 µM

SMILES: CC1CCN(CC[C@H]2CCCN2S(=O)(=O)c2cccc(O)c2)CC1 [SB-269970, (2R)-1-((3-hydroxyphenyl)sulfonyl)-2-(2-(4-methyl-1-piperidinyl)ethyl)pyrrolidine, reference compound]
effect on 5-CT-induced cAMP accumulation (5-HT7R): dose-dependently decrease

SMILES: CCCCc1cc(-c2ccoc2)nc(N2CCN(C)CC2)n1 (as salt: hydrobromid) [Compound 13, 4-(n-Butyl)-6-(3-furyl)-2-(4-methylpiperazin-1-yl)pyrimidine]
melting point: 179 to 180 °C

SMILES: c1ccc(CN2CCN(c3nccc(-c4ccoc4)n3)CC2)cc1 (as salt: hydrobromid) [Compound 5, 2-(4-Benzylpiperazin-1-yl)-4-(3-furyl)pyrimidine]
melting point: > 280 °C

SMILES: c1cc(-c2ccoc2)nc(NCCCc2ncc[nH]2)n1 (as salt: hydrobromid) [Compound 46, 4-(3-Furyl)-N-[3-(1H-imidazol-2-yl)propyl]pyrimidin-2-amine]
melting point: 234 to 236 °C

SMILES: Cc1cc(-c2ccnc(N3CCN(C)CC3)n2)co1 (as salt: hydrobromid) [Compound 24, 4-(5-Methyl-3-furyl)-2-(4-methylpiperazin-1-yl)pyrimidine]
melting point: 275 °C (dec.)

SMILES: CCCN1CCN(c2nccc(-c3ccoc3)n2)CC1 (as salt: hydrobromid) [Compound 4, 4-(3-Furyl)-2-(4-propylpiperazin-1-yl)pyrimidine]
melting point: 274 to 277 °C

SMILES: CCCc1cnc(N2CCN(C)CC2)nc1-c1ccoc1 (as salt: hydrobromid) [Compound 21, 4-(3-Furyl)-2-(4-methylpiperazino)-5-propylpyrimidine]
melting point: 206 to 208 °C

SMILES: CN1CCN(c2nccc(-c3cc4ccccc4s3)n2)CC1 (as salt: hydrobromid) [Compound 37, 4-(Benzothiophen-2-yl)-2-(4-methylpiperazin-1-yl)pyrimidine]
melting point: 299 to 300 °C

From paper PMC6272903, “Synthesis and Structure-Activity Relationship Analysis of 5-HT7 Receptor Antagonists: Piperazin-1-yl Substituted Unfused Heterobiaryls” (Molecules, 2016)
